Laboratory results taken from patent US9162992B2, “Compounds and compositions for treatment of breathing control disorders or diseases” (GALLEON PHARMACEUTICALS, INC., priority 2010, dated 2015).
Where a name gives a salt, the structure may show the parent alone. Blank lines part the entries; values can stand above or below the compound they belong to.

Tests used:
[1] = molecular target: T1, rat KCNK3/TASK-1 (Rattus norvegicus, UniProt O54912); assay: Thallium flux through rat TASK-1 (KCNK3-CHO cells); format: cell-based; details: Tl+ flux; 3 nM to 30 μM; read-out: rTASK-1 IC50
T1 construct: expressed in transfected cells; host or cells: CHO cells (tetracycline-inducible)
Experimental: (§1) CHO cells expressing recombinant tetracycline-inducible rat KCNK3/TASK-1 (KCNK3-CHO cells) were plated in poly-D-lysine coated 384-well plates at a density of 6,000 cells/well (50 μl/well of 120,000 cells/mL) and allowed to incubate for 72 hrs in the presence of 5% CO2 and 1 μg/mL tetracycline at 30° C. HEK cells expressing recombinant tetracycline-inducible human KCNK9/TASK-3 (KCNK9-HEK cells) were plated at a density of 15,000 cells per well (50 μl/well, 300,000 cells/mL) and incubated overnight at 37° C. and 5% CO2 in the presence of 1 μg/mL tetracycline.
(§2) Drug plates were generated from 10 mM 100% DMSO mother plates. Compounds were transferred to 384-well drug plates and titrated with sequential 1:3 dilutions in 100% DMSO for a total of 9 dilutions. A dilution plate is made by taking 2.4 μl from the mother plate and adding to […] of assay buffer for a 12% DMSO dilution plate. From this dilution plate, a final daughter plate is generated by taking 1 μA of the dilution plate and adding to 40 μA of assay buffer for a final DMSO concentration of 0.3%. Each compound was evaluated in duplicate and the concentration range evaluated was 3 nM to 30 μM.
(§3) When thallium was added to extracellular solution with a stimulus to open channels, Tl^+ flowed down its concentration gradient into the cells and channel activity was detected with an indicator dye, FluxOR™, that increased in cytosolic fluorescence. The FluxOR™ indicator dye was loaded into cells as a membrane permeable acetoxymethyl ester. On the day of each assay, FluxOR™ assay buffer was made fresh from Hank's Balanced Saline Solution (HBSS) buffered with 20 mM HEPES and pH adjusted to 7.4 with NaOH. Dye loading solution was prepared per manufacturer's instructions, and 25 μl of dye solution applied to each well with a multidropper after plating medium was removed manually from cells. Dye was allowed to load for 90 minutes at room temperature in the dark.
(§4) After the 90 min dye loading incubation and subsequent manual dye removal, 24 μl of the drug daughter plate was transfer to cell plates by a cybi-well system and then incubated at room temperature for 20 minutes to allow for equilibration within wells. Stimulation buffer was prepared from 5× chloride-free buffer, thallium, and potassium sulfate containing 5 times the desired final assay concentration of 10 mM K^+ 2.8 mM Tl^+. Cell plates were then transferred to an FDSS 6000 kinetic imaging plate reader (Hamamatsu). Fluorescence at 525 nm (excitation 488 nm) was measured for 10 seconds at 1 Hz to establish baseline for the entire plate. After baseline was established, 6 μl/well of stimulation buffer was added and fluorescence signal recorded for another 140 seconds.
(§5) From the fluorescence signals in the absence and presence of Galleon compounds, Inhibitory concentration curves were plotted and IC50 values were estimated using a curve fitting algorithm.

[2] = test system: spontaneously breathing rats; assay: Minute ventilation (MV) and cardiovascular parameters in naive rats; format: in vivo, rat; parameters: unit not given here; details: 1 mpk IV; 15/65/20; pH 5
Experimental: All surgical procedures were performed under anesthesia induced by 2% isoflurane in compressed medical grade air. With rats in supine position, the right femoral vein was catheterized using polyethylene tubing (PE-50). This catheter was used for fluid and drug administration. Simultaneously, the right femoral artery was also catheterized for monitoring blood pressure and heart rate. In order to measure the respiratory parameters in spontaneously breathing rats, trachea was intubated using 13 gauge tracheal tube (2.5 mm ID, Instech Solomon, Pa.).
After establishing a stable base-line at 1.5% isoflurane, compounds (typically at a dose of 1 mpk) were administered IV, and ventilatory parameters were generated from spontaneously breathing rats, along with cardiovascular output (mean arterial pressure (MAP) and heart rate). Maximum peak minute ventilatory (MV) responses (MPR), along with changes in minute ventilation versus baseline (AMV) were obtained as shown in the tables below.

[3] = test system: spontaneously breathing rats; assay: Respiratory rate, tidal volume and minute volume in urethane-anesthetized rat; format: in vivo; details: IV; compared to vehicle
Experimental: Adult male Sprague Dawley rats (250-350 g body weight; Harlan, Indianapolis, Ind., USA) were anesthetized with isoflurane in oxygen. The femoral vein was cannulated to administer compounds. Body temperature was maintained between 36.0 and 37.2° C. throughout the experiment. The cervical portion of the trachea was cannulated and attached to a rat-sized pneumotachometer for measuring tracheal airflow. After surgical instrumentation was complete, isoflurane was slowly discontinued, while urethane (1.8 g/kg) was administered intravenously over 10-15 minutes to maintain anesthesia. Rats were permitted to breathe spontaneously and inspire 100% oxygen. At least 30-45 minutes after discontinuing isoflurane, baseline tracheal airflow was recorded for 20-30 minutes prior to compound administration. Vehicle and test compound were administered intravenously over 15-25 seconds and at a constant volume (1 mL/kg). At least 15-min elapsed between each dose of compound administered. Tracheal airflow was recorded continuously before, during and after compound administration. Tidal volume was derived from the integral of airflow, and respiratory rate was derived from the number of inspiratory cycles per minute. Minute volume was calculated as the product of tidal volume and respiratory rate (FIG. 32).

[4] = molecular target: T2, human KCNK9/TASK-3 (Homo sapiens, UniProt Q9NPC2); assay: Thallium flux through human TASK-3 (KCNK9-HEK cells); format: cell-based; details: Tl+ flux; 3 nM to 30 μM; read-out: hTASK-3 IC50
T2 construct: expressed in transfected cells; host or cells: HEK cells (tetracycline-inducible)
Experimental: as §1, §2, §3, §4, §5

[5] = Solubility of process impurity (observation); format: physicochemical
Text: Under certain conditions where the compounds of the present invention and their synthetic intermediates are exposed to acidic or alkaline aqueous environments, the bond between the aromatic heterocycle and the ring substituents may be susceptible to hydrolytic cleavage. For example, in the intermediates to compounds of formula (II-a), a halo substituent in the 2 position (Schemes 3 and 4) may be hydrolytically replaced with a hydroxyl group to yield N-(4,6-Bis(n-propylamino)-1,3,5-triazin-2-ol (CLXXVIII). Similarly, the amine substituents of compounds of formula (II-a) may be displaced by a hydroxyl group. Without wishing to be bound by theory, a series of chemical changes may occur to enable this substitution, such as a prior oxidation of the appended amine side chain, with hydrolytic replacement by hydroxyl as the final transformation. As a specific non-limiting example, the N,O-dimethylhydroxylamino substituent of N-(4,6-Bis-n-propylamino-[1,3,5]triazin-2-yl)-N,O-dimethyl-hydroxylamine (XXXV) may be partially displaced by hydroxyl during processing in the presence of water, forming (CLXXVIII) as a process impurity. […] It was unexpectedly observed that even at elevated temperatures (CLXXVIII) is very insoluble relative to the active ingredient. Thus, trace quantities of this compound in the API can be problematic in liquid formulations. […]

[6] = test system: morphine-induced respiratory depression; assay: Effects of morphine and compound on arterial blood gases in the rat; format: in vivo; details: opioid-treated rat
Experimental: Rats with pre-cannulated jugular vein and femoral arterial catheters (for administering drugs and obtaining blood samples respectively) were obtained from Harlan laboratories and kept at the animal facility at Galleon Pharmaceuticals until the experimental procedures. Each animal was dosed with morphine sulfate (10 mg/kg), dissolved in saline at a concentration of 10 mg/mL, via injection into the jugular vein over a period of 20 seconds with a 20 second flush of 0.9% NaCl saline. Prior to morphine administration, two 250 μL samples of arterial blood were aspirated from the femoral artery into a pre-heparinized syringe. The samples were analyzed on Radiometer's ABL Flex 800, where pO2, pCO2, pH, SaO2 and other parameters were recorded. Aspirated volumes of arterial blood were replaced by room temperature sterile saline (˜300 μL) slowly flushed back into the femoral arterial catheter of the rodent to prevent hypovolemia. Morphine was then administered and 2 minutes later another blood sample was taken.
The infusion started at t=15 minutes and ended at t=35 minutes. Arterial blood gas analysis occurred at time points t=12, 18, 25, 35, 40, 45, and 50 minutes.

[7] = test system: morphine-induced respiratory depression; assay: Opioid-induced respiratory depression in the rat, plethysmography (minute ventilation); format: in vivo; details: opioid-treated rat; plethysmography; FIG. 9
Experimental: Rats with pre-cannulated jugular vein (for administering drugs) were acclimated to plethysmography chambers for a minimum of 60 minutes, or until animals were no longer restless. Each animal was dosed with morphine sulfate (10 mg/kg), dissolved in sterile water at a concentration of 10 mg/mL (supplied by Baxter Healthcare Corporation), via injection into the jugular vein catheter over a period of 5-10 seconds.
Compound (XXXVI) was dissolved in 20% hydroxypropyl β-cyclodextran (20% bcd on graph) at a concentration of 0.45 mg/mL at pH 5. After a period of 5 min, compound (XXXVI), labeled as cmpd (A), was administered via infusion into the jugular vein at a dose of 0.10 mg/kg/min for 20 min and then at a dose of […] for 20 min (e.g., 20 μL/min/0.3 kg rat to yield […]).
After 20 minutes of infusion at this dose, the infusion pumps were turned off, and all animals were given a 20 minute recovery period, followed by a post-study analysis of rat health and behavior. […] Results are illustrated in FIG. 1.

T2 sequence (Q9NPC2 whole entry): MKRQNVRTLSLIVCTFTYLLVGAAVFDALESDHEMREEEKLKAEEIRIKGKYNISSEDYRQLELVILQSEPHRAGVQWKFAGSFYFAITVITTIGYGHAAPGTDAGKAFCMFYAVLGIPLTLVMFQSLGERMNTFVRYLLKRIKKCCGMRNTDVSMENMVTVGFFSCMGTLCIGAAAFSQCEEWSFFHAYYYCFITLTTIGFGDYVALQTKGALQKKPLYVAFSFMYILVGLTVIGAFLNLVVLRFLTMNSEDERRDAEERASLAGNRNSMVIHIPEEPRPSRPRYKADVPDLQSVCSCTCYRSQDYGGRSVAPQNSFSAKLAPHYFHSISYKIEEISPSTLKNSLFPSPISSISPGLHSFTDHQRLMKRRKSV
T1 sequence (O54912 whole entry): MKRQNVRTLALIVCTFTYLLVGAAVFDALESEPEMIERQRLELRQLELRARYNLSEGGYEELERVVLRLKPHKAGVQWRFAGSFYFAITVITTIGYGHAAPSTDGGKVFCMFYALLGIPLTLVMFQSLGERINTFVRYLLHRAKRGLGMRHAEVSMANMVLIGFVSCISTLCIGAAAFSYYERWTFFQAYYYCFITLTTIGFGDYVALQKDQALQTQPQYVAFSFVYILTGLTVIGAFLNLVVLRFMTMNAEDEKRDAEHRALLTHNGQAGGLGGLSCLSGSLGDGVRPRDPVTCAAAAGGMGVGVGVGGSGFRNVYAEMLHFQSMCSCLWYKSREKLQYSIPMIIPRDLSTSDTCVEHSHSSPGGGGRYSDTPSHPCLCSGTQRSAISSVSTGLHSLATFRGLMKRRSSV

melting point: 123 to 126 °C
Structure (SMILES): CCCNc1cc(N(C)OC)nc(NCCC)n1 (as salt: hydrogen sulfate) [CXXI, 2,6-Bis-(N-n-propylamino)-[1,3]pyrimidin-4-yl)-N,O-dimethyl-hydroxylamine hydrogen sulfate]

IC50 [1]: 10 nM
IC50 [4]: > 30000 nM
Structure (SMILES): CCCNc1nc(NC)nc(NCCC)n1 [CLXXII, N-(2,4-Bis-n-propylamino)-N-(6-methylamino)-[1,3,5]triazine]
MV MPR [2]: 145
MV ΔMV [2]: 106
respiratory rate, tidal volume and minute volume [3]: increased both respiratory rate and tidal volume, and their product minute volume

solubility in aqueous environments [5]: sparingly soluble
solubility in most organic solvents [5]: very low solubility
Structure (SMILES): CCCNc1nc(O)nc(NCCC)n1 [CLXXVIII]

Structure (SMILES): CCCNc1nc(N(C)OC)c2cc[nH]c2n1 [CXLII, N-(2-Propylamino-7H-pyrrolo[2,3d]pyrimidin-4-yl)-N,O-dimethyl-hydroxylamine hydrochloride]
effects of opioid on blood gases and pH (pH, SaO2, pO2, pCO2) [6]: reverse the effects of opioid on blood gases and pH
minute ventilation (MV), reversal of opioid-induced respiratory depression [7]: reverse opioid-induced respiratory depression

IC50 [1]: 50 nM
IC50 [4]: > 30000 nM
Structure (SMILES): CCCNc1nc(NCCC)nc(NOC)n1.Cl [XLII, N-(4,6-Bis-n-propylamino-[1,3,5]triazin-2-yl)-O-methyl-hydroxylamine hydrochloride]
respiratory rate, tidal volume and minute volume [3]: increased both respiratory rate and tidal volume, and their product minute volume
